Assay results reported in patent publication US10131691B2, “Compositions and methods for specific regulation of pyruvate dehydrogenase kinase” (THE BOARD OF TRUSTEES OF THE LELAND STANFORD JUNIOR …, priority 2011, dated 2018).
No end group written: not given here.

Assays:
E1 subunit of PDH = test: 2-D IEF phosphorylation of PDH E1 subunit in hearts after I/R; design: species or system rat; details: cardiac I/R
Experimental: An ex vivo model of acute ischemic heart damage was used, which involves a 30 min equilibration period, followed by 30 min of global ischemia, which in turn is followed by 60 min of reperfusion. The hearts were perfused with 1 μM TAT or TAT-conjugated peptide. Normoxic control hearts were subjected to 90 min perfusion in the absence of ischemia. Coronary effluent was collected to determine creatine phosphokinase (CPK) release during the first 30 min of the reperfusion period. At the end of the reperfusion period, hearts were sliced into 1-mm-thick transverse sections and incubated in triphenyltetrazolium chloride solution (TTC, 1% in phosphate buffer, pH 7.4) at 37° C. for 15 min. Infarct size was expressed as a percentage of the risk zone (equivalent to total LV muscle mass) (methods described in Brandman et al., 2007, J. Biol. Chem., 282:4113-4123; Inagaki et al., 2003, Circulation, 108:869-875). […]
As described above, δPKC phosphorylation of PDK following cardiac ischemia and reperfusion leads to the phosphorylation and a decline in the activity of pyruvate dehydrogenase (PDH) (Churchill et al., 2005, Circ. Res., 97:78-85). […] Since ΨPDK is derived from the PDK homologous sequence in δPKC, it was next determined whether PDK phosphorylation is affected by ΨPDK treatment.

[1] = target: T1, δPKC phosphorylation of Drp1 (Homo sapiens, UniProt Q05655); test: In vitro kinase assay: δPKC phosphorylation of Drp1; format: biochemical
T1 construct: purchased Invitrogen
T1 sequence (Q05655 whole entry): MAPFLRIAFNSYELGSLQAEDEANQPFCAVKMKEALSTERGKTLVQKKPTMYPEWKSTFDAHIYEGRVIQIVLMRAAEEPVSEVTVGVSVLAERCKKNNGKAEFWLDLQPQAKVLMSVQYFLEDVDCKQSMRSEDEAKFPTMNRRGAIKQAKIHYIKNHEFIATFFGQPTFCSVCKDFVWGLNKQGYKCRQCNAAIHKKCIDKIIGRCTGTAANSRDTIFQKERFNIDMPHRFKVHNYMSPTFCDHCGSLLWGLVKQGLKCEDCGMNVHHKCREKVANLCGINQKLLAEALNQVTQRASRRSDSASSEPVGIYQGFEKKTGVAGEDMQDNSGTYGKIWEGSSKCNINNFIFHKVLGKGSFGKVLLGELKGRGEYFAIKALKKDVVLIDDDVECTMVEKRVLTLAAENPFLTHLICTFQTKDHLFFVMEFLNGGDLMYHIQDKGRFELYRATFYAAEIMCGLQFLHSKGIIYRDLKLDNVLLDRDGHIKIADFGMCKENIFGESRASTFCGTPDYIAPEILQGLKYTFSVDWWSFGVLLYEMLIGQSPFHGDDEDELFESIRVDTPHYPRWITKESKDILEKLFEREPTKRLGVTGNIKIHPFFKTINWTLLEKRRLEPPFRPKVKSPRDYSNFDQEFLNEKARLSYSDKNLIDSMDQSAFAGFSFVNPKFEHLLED
Experimental: (§1) In vitro phosphorylation assay. To determine the level of PDK and Drp1 phosphorylation in presence of ΨPDK, δPKC recombinant protein (Invitrogen, Calif., USA; 200 ng) was incubated with or without peptides for 10 min, then 100 ng recombinant PDK2 (Abnova, Taiwan) or Drp1 (Abnova, Taiwan) were added for 20 min at 37° C. in 40 μl of kinase buffer (20 mM Tris-HCl, 20 mM MgCl2, 1 μM DTT, 25 μM ATP, 1 mM CaCl2) containing 5 μCi [γ^32P] ATP (4500 Ci/mmol, ICN) in the presence of the low amount of PKC activators, phosphatidylserine (PS, 1.25 μg) and 1,2 dioleoyl sn-glycerol (DG, 0.04 μg). The kinase assay was terminated by adding loading Laemmli buffer containing 5% SDS and the samples were loaded on a 10% PAGE-SDS polyacrylamide gel, and the levels of phosphorylated PDK2 protein were determined by exposing the nitrocellulose to autoradiography. The nitrocellulose was also reprobed using respective antibodies for loading controls.
(§2) Since ΨPDK is derived from a PDK-like sequence in δPKC (FIG. 1B), it was reasoned that this peptide should act as a competitive inhibitor, selective for δPKC phosphorylation of PDK. To test this hypothesis directly, an in vitro kinase assay in which the ability of δPKC to phosphorylate PDK is determined was used.

[2] = tested on: fibroblasts derived from δPKC knock-out mice; test: MARCKS phosphorylation in fibroblasts from δPKC knock-out mice; format: cell-based, mouse; details: fibroblasts lacking δPKC
Source text: (§3) Fibroblasts were isolated from wild-type or δPKC knockout mice (provided by Dr. Robert Messing, Gallo Center, UCSF) as previously described (Disatnik et al., 2004, J. Cell Sci., 117:4469-4479) and maintained in 20% fetal bovine serum.
(§4) Phosphorylation of myristoylated alanine-rich C kinase substrate (MARCKS), a ubiquitous PKC substrate, was monitored by Western blot of total cell lysates, using anti-phosphorylated MARCKS (Cell Signaling, Danvers, Mass.). Anti-MARCKS and anti-δPKC antibodies were obtained from Santa Cruz Biotechnology (Santa Cruz Biotechnology, CA, USA).
(§5) The ΨPDK sequence is found both in PDK and in the PDK-cognate protein, δPKC. It was therefore predicted that ΨPDK mimics inhibitory intra-molecular interaction, and, similar to ΨδRACK, ΨPDK should compete with the inhibitory interaction of PDK and δPKC, and increase δPKC-mediated functions (FIG. 1A). Phosphorylation of myristoylated alanine-rich C-kinase substrate (MARCKS) was used as a marker of PKC activity (Disatnik et al., 2004, J. Cell. Sci., 117:4469-4479). […] To determine the selectivity of the peptides for δPKC, fibroblasts derived from δPKC knock-out mice were also used.

[3] = target: T2, δPKC phosphorylation of PDK (Homo sapiens, UniProt Q05655); test: In vitro kinase assay: δPKC phosphorylation of PDK2; format: biochemical; details: recombinant δPKC and PDK2
T2 construct: purchased Invitrogen (δPKC); Abnova (PDK2)
T2 sequence (Q05655 whole entry): as above
Experimental: as §1, §2

δPKC [4] = target: T3, δPKC (Homo sapiens, UniProt Q05655); test: Proteinase K sensitivity of recombinant δPKC; format: binding; details: non-TAT conjugated peptide; vs no peptide or control peptide ΨδRACK
T3 construct: purchased Invitrogen
T3 sequence (Q05655 whole entry): as above
Experimental: Human recombinant δPKC (Invitrogen, Calif., USA; 50 ng; 0.625 pmole) was incubated with ΨPDK (non-TAT conjugated, 1 nmole) prior to addition of proteinase K (0.05 μg/ml) in 20 mM Tris-HCl, pH 7.4 containing 1 μM DTT. The reaction was stopped as indicated by adding 5 mM PMSF.
as §2

δPKC [5] = target: T4, δPKC (Mus musculus, UniProt P28867); test: MARCKS phosphorylation in wild-type fibroblasts (Western blot); format: cell-based; details: 20% serum, peptides conjugated to TAT47-57, relative to control peptide
T4 construct: endogenous in cells; host or cells: primary fibroblasts from wild-type mice
T4 sequence (P28867 whole entry): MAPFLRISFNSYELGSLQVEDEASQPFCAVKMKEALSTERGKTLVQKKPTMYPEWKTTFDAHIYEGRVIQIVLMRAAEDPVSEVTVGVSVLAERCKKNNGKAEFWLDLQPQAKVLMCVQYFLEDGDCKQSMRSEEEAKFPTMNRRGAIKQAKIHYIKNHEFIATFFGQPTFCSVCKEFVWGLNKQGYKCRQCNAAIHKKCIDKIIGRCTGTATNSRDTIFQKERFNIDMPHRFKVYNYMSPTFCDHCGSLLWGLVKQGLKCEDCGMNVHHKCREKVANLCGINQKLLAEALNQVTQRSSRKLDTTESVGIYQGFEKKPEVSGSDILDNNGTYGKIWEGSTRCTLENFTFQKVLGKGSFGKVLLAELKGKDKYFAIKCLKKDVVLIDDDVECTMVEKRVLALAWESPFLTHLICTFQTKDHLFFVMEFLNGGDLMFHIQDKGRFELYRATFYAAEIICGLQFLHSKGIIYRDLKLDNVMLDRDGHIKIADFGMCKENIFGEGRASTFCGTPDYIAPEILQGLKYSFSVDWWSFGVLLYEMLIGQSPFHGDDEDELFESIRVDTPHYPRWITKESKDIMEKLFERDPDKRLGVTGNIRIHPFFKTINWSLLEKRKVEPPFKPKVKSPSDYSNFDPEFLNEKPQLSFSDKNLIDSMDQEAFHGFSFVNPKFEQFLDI
Source text: as §3, §4, §5

MARCKS = MARCKS phosphorylation in hearts subjected to I/R; design: species or system rat; details: vs control peptide
Experimental: (§6) An ex vivo model of acute ischemic heart damage was used, which involves a 30 min equilibration period, followed by 30 min of global ischemia, which in turn is followed by 60 min of reperfusion. The hearts were perfused with 1 μM TAT or TAT-conjugated peptide. Normoxic control hearts were subjected to 90 min perfusion in the absence of ischemia. Coronary effluent was collected to determine creatine phosphokinase (CPK) release during the first 30 min of the reperfusion period. At the end of the reperfusion period, hearts were sliced into 1-mm-thick transverse sections and incubated in triphenyltetrazolium chloride solution (TTC, 1% in phosphate buffer, pH 7.4) at 37° C. for 15 min. Infarct size was expressed as a percentage of the risk zone (equivalent to total LV muscle mass) (methods described in Brandman et al., 2007, J. Biol. Chem., 282:4113-4123; Inagaki et al., 2003, Circulation, 108:869-875).

ALDH2 = test: 2-D IEF phosphorylation of ALDH2 in hearts after I/R; design: species or system rat; details: cardiac I/R
Experimental: as §6
2-D IEF/SDS polyacrylamide gel electrophoresis using rat heart samples was performed as previously described (Chen et al., 2008, Science, 321:1493-1495). 10% SDS gel electrophoresis and Western blotting were carried out by standard methods using PDK2 c-term rabbit (Abgent, Calif., USA), PDH subunit E1 alpha monoclonal (Invitrogen, Calif., USA) and ALDH2 goat (Santa Cruz Biotechnology, CA, USA) antibodies. […]

## ALSTER (not fully specified (C-terminus); also: TAT47-57 conjugated via disulfide) [ΨPDK, for cells and hearts conjugated to TAT47-57 via disulfide bond]
E1 subunit of PDH
  phosphorylation of E1 subunit of PDH: did not occur
[1]
  Drp1 phosphorylation by δPKC: did not affect Drp1 phosphorylation
[2]
  MARCKS phosphorylation: did not affect MARCKS phosphorylation
[3]
  inhibition of δPKC phosphorylation of PDK: ~30%
δPKC [4]
  stability of δPKC to proteinase K digestion: more stable to PK digestion
δPKC [5]
  MARCKS phosphorylation: increased MARCKS phosphorylation
MARCKS
  I/R-induced MARCKS phosphorylation: an increase in I/R-induced MARCKS phosphorylation
ALDH2
  ALDH2 phosphorylation: neither ΨPDK nor δV1-1 affected ALDH2 phosphorylation
